# Data: patent US6376497B1, “Antifungal azole derivatives having a fluorinated vinyl group and process for preparing same” (Korea Research Institute of Chemical Technology, priority 1999, dated 2002)
# Experiments:
# Assay in all cases: In vitro antifungal activity, microbroth dilution MIC
# Format in all cases: cell-based
# [1] = system: Cryptococcus neoformans B. 42419; conditions: 4 to 48 hours; for Minimal inhibitory concentration(MIC), Cry. neoformans B. 42419: RPMI-1640, 35° C., no growth observed
# Method in brief: (§1)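 Broth microdilution adapted from NCCLS M27, in RPMI-1640 with 0.165 M MOPS, pH 7.0. Yeast or mould inoculum at 2×10^3 CFU/ml was mixed 1:1 with DMSO-derived compound solutions (200 to 0.10 μg/ml before mixing) and incubated at 35 °C for 4 to 48 h. MIC was the concentration showing no growth.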
# [2] = system: Candida parapsitosis A. 7330; conditions: 4 to 48 hours; for Minimal inhibitory concentration(MIC), C. parapsitosis A. 7330: RPMI-1640, 35° C., no growth observed
# Method in brief: as §1
# Candida krusei K. 11655 = conditions: 4 to 48 hours; for Minimal inhibitory concentration(MIC), C. krusei K. 11655: RPMI-1640, 35° C., no growth observed
# Method in brief: as §1
# [3] = system: Candida tropicalis A. 13803; conditions: 4 to 48 hours; for Minimal inhibitory concentration(MIC), C. tropicalis A. 13803: RPMI-1640, 35° C., no growth observed
# Method in brief: as §1
# [4] = system: Candida pseudotropicalis K. 11658; conditions: 4 to 48 hours; for Minimal inhibitory concentration(MIC), C. pseudotropicalis K. 11658: RPMI-1640, 35° C., no growth observed
# Method in brief: as §1
# [5] = system: Cryptococcus neoformans A. 34144; conditions: 4 to 48 hours; for Minimal inhibitory concentration(MIC), Cry. neoformans A. 34144: RPMI-1640, 35° C., no growth observed
# Method in brief: as §1
# [6] = system: Trichophyton mentagrophytes B. 32663; conditions: 4 to 48 hours; for Minimal inhibitory concentration(MIC), T. mentagrophytes B. 32663: RPMI-1640, 35° C., no growth observed
# Method in brief: as §1
# Candida albicans C1-2 = conditions: 4 to 48 hours; for Minimal inhibitory concentration (MIC): C. albicans C1-2, RPMI-1640, 35° C.; for Minimal inhibitory concentration(MIC), C. albicans C1-2: RPMI-1640, 35° C., no growth observed
# Method in brief: as §1
# [7] = system: Candida albicans A. 10231; conditions: 4 to 48 hours; for Minimal inhibitory concentration (MIC): C. albicans A. 10231, RPMI-1640, 35° C.; for Minimal inhibitory concentration(MIC), C. albicans A. 10231: RPMI-1640, 35° C., no growth observed
# Method in brief: as §1
# [8] = system: Cryptococcus neoformans IFM. 40092; conditions: 4 to 48 hours; for Minimal inhibitory concentration(MIC), Cry. neoformans IFM. 40092: RPMI-1640, 35° C., no growth observed
# Method in brief: as §1
# [9] = system: Trichophyton mentagrophytes A. 9129; conditions: 4 to 48 hours; for Minimal inhibitory concentration(MIC), T. mentagrophytes A. 9129: RPMI-1640, 35° C., no growth observed
# Method in brief: as §1
# [10] = system: Torulopsis glabrata B. 16205; conditions: 4 to 48 hours; for Minimal inhibitory concentration(MIC), T. glabrata B. 16205: RPMI-1640, 35° C., no growth observed
# Method in brief: as §1
# [11] = system: Aspergillus niger A. 16404; conditions: 4 to 48 hours; for Minimal inhibitory concentration(MIC), A. niger A. 16404: RPMI-1640, 35° C., no growth observed
# Method in brief: as §1
# [12] = system: Aspergillus furnigatus B. 19119; conditions: 4 to 48 hours; for Minimal inhibitory concentration(MIC), A furnigatus B. 19119: RPMI-1640, 35° C., no growth observed
# Method in brief: as §1
# [13] = system: Candida albicans IFO. 1385; conditions: 4 to 48 hours; for Minimal inhibitory concentration(MIC), C. albicans IFO. 1385: RPMI-1640, 35° C., no growth observed
# Method in brief: as §1
Minimal inhibitory concentration (MIC) (Candida albicans C1-2) [µg/mL],Minimal inhibitory concentration (MIC) [7] [µg/mL],"Minimal inhibitory concentration(MIC), Cry. neoformans B. 42419 [1] [µg/mL]","Minimal inhibitory concentration(MIC), C. parapsitosis A. 7330 [2] [µg/mL]","Minimal inhibitory concentration(MIC), C. krusei K. 11655 (Candida krusei K. 11655) [µg/mL]","Minimal inhibitory concentration(MIC), C. tropicalis A. 13803 [3] [µg/mL]","Minimal inhibitory concentration(MIC), C. pseudotropicalis K. 11658 [4] [µg/mL]","Minimal inhibitory concentration(MIC), Cry. neoformans A. 34144 [5] [µg/mL]","Minimal inhibitory concentration(MIC), T. mentagrophytes B. 32663 [6] [µg/mL]","Minimal inhibitory concentration(MIC), C. albicans C1-2 (Candida albicans C1-2) [µg/mL]","Minimal inhibitory concentration(MIC), C. albicans A. 10231 [7] [µg/mL]","Minimal inhibitory concentration(MIC), Cry. neoformans IFM. 40092 [8] [µg/mL]","Minimal inhibitory concentration(MIC), T. mentagrophytes A. 9129 [9] [µg/mL]","Minimal inhibitory concentration(MIC), T. glabrata B. 16205 [10] [µg/mL]","Minimal inhibitory concentration(MIC), A. niger A. 16404 [11] [µg/mL]","Minimal inhibitory concentration(MIC), A furnigatus B. 19119 [12] [µg/mL]","Minimal inhibitory concentration(MIC), C. albicans IFO. 1385 [13] [µg/mL]",SMILES,further results
12.5,12.5,,,,,,,,,,,,,,,,Cc1cc(C)cc(C=C(F)OCC2COC(Cn3ccnc3)(c3ccc(F)cc3F)O2)c1 (mixture of isomers) [Ex. 41],"Minimal inhibitory concentration (MIC) ([1]; Cry. neoformans B. 42419, RPMI-1640, 35° C.): 3.13 µg/mL; Minimal inhibitory concentration (MIC) ([2]; C. parapsitosis A. 7330, RPMI-1640, 35° C.): 100 µg/mL; Minimal inhibitory concentration (MIC) (Candida krusei K. 11655; C. krusei K. 11655, RPMI-1640, 35° C.): 50.0 µg/mL; Minimal inhibitory concentration (MIC) ([3]; C. tropicalis A. 13803, RPMI-1640, 35° C.): 25.0 µg/mL; Minimal inhibitory concentration (MIC) ([4]; C. pseudotropicalis K. 11658, RPMI-1640, 35° C.): 25.0 µg/mL; Minimal inhibitory concentration (MIC) ([5]; Cry. neoformans A. 34144, RPMI-1640, 35° C.): 3.13 µg/mL; Minimal inhibitory concentration (MIC) ([6]; T. mentagrophytes B. 32663, RPMI-1640, 35° C.): 3.13 µg/mL; Minimal inhibitory concentration (MIC) ([8]; Cry. neoformans IFM. 40092, RPMI-1640, 35° C.): 0.78 µg/mL; Minimal inhibitory concentration (MIC) ([9]; T. mentagrophytes A. 9129, RPMI-1640, 35° C.): 6.25 µg/mL; Minimal inhibitory concentration (MIC) ([10]; T. glabrata B. 16205, RPMI-1640, 35° C.): 6.25 µg/mL; Minimal inhibitory concentration (MIC) ([11]; A. niger A. 16404, RPMI-1640, 35° C.): 25.0 µg/mL; Minimal inhibitory concentration (MIC) ([12]; A furnigatus B. 19119, RPMI-1640, 35° C.): 6.25 µg/mL; Minimal inhibitory concentration (MIC) ([13]; C. albicans IFO. 1385, RPMI-1640, 35° C.): 0.78 µg/mL"
,,6.25,>100,>100,>100,>100,3.13,6.25,100,50.0,0.78,25.0,50,>100,>100,3.13,COc1ccc(C(=C(F)Oc2ccc(OCC3COC(Cn4ccnc4)(c4ccc(Cl)cc4Cl)O3)cc2)C(F)(F)F)cc1 (mixture of isomers) [Ex. 98],
,,1.56,>100,>100,100,25.0,1.56,3.13,12.5,25.0,0.39,6.25,50.0,>100,>100,1.56,COc1ccc(C=C(F)Oc2ccc(OCC3COC(Cn4cncn4)(c4ccc(Cl)cc4Cl)O3)cc2)cc1 (mixture of isomers) [Ex. 118],
6.25,6.25,3.13,>100,>100,25.0,100,3.13,3.13,,,0.78,3.13,25.0,12.5,25.0,6.25,FC(=Cc1ccc(Cl)cc1)OCC1COC(Cn2cncn2)(c2ccc(Cl)cc2Cl)O1 (mixture of isomers) [Ex. 76],
